Source: patent US20100181035A1, “GLUCOSYLTRANSFERASES” (UNIVERSITY OF YORK, priority 2003, published 2010)

Assays:
[1] = target: T1, glucosyltransferase 72E2 (UGT72E2) (Arabidopsis thaliana, UniProt Q9LVR1); test: Glucosyltransferase activity assay with 72E2, HPLC analysis; type: biochemical; details: substrate glucosylation; HPLC peak area; conditions for UGT72E1: 1 mM substrate, 5 mM UDP-glucose, pH 7.0, 30° C., 1 h
T1 sequence (Q9LVR1 1-481): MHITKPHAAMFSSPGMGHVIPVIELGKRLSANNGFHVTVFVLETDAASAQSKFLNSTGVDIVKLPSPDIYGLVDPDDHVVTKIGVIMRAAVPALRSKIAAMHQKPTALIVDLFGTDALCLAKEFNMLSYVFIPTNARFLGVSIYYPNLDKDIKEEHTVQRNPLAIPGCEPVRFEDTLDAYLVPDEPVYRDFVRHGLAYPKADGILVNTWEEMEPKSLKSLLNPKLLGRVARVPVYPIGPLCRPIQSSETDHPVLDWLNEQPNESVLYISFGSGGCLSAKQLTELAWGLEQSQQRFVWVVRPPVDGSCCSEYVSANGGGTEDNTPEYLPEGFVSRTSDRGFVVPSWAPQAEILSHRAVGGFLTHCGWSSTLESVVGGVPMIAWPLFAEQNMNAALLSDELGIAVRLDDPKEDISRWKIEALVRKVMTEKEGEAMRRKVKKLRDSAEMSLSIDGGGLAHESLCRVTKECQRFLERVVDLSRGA

[2] = target: T2, glucosyltransferase 72E1 (UGT72E1) (Arabidopsis thaliana, UniProt Q94A84); test: Glucosyltransferase activity assay with recombinant UGT72E1, HPLC analysis; type: biochemical; details: substrate glucosylation; 2 μg enzyme, 1 mM phenolic substrate, 5 mM UDP-glucose, 100 mM Tris-HCl pH 7.0, 30° C., 1 h; HPLC peak area
T2 construct: made in house; host or cells: E. coli
T2 sequence (Q94A84 1-487): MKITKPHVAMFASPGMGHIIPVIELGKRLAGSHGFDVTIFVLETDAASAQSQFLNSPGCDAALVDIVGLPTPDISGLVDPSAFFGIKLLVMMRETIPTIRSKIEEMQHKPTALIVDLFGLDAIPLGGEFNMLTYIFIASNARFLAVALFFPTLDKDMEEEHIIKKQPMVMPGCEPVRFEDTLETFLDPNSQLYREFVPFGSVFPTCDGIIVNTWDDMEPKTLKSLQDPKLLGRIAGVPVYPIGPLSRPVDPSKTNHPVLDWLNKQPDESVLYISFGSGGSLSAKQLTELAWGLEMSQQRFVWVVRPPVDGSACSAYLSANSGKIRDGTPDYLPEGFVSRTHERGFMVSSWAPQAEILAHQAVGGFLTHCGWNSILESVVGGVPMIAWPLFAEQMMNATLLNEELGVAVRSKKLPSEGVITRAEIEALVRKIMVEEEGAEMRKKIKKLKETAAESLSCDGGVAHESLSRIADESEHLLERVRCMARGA
Method: Recombinant UGT72E1 was expressed and purified from E. coli as described previously (Lim et al., 2001, J. Biol. Chem. 276, 4344-4349). The enzyme (2 μg) was incubated with 1 mM phenolic substrates, 5 mM UDP-glucose, 100 mM Tris-HCl, pH 7.0 in a total volume 200 μl. The reaction mix was incubated at 30° C. for 1 h and was analysed using HPLC subsequently.
Coniferyl alcohol: 10-25% acetonitrile (0.1% TFA), 306 nm Sinapyl alcohol: 10-25% acetonitrile (0.1% TFA), 285 nm p-coumaryl alcohol: 10-25% acetonitrile (0.1% TFA), 311 nm coniferyl aldehyde: 10-47% acetonitrile (0.1% TFA), 311 nm sinapyl aldehyde: 10-47% acetonitrile (0.1% TFA), 280 nm p-coumaryl aldehyde: 10-47% acetonitrile (0.1% TFA), 315 nm

Activity (area, uv × sec) 72E2 [1] [uv × sec] | Activity (area, uv × sec) 72E1 [2] [uv × sec] | SMILES
0 | 0 | OC/C=C/c1ccc(O)cc1 [p-coumaryl alcohol]
3339410 | 0 | COc1cc(/C=C/CO)cc(OC)c1O [Sinapyl alcohol]
37002362 | 13655427 | COc1cc(/C=C/C=O)cc(OC)c1O [Sinapyl aldehyde]

Second part, the molecule before the results:

SMILES | Activity (area, uv × sec) 72E2 [1] [uv × sec] | Activity (area, uv × sec) 72E1 [2] [uv × sec]
COc1cc(/C=C/C=O)ccc1O [Coniferyl aldehyde] | 5068215 | 21950129
O=C/C=C/c1ccc(O)cc1 [p-coumaryl aldehyde] | 2612331 | 9243651
COc1cc(/C=C/CO)ccc1O [Coniferyl alcohol] | 29756923 | 3225766
